Experiment [1] deals with H37Rv strain of M. tuberculosis. Nature of the experiment: Alamar Blue Susceptibility Test (MABA). Format: cell-based. Particulars: H37Rv strain of M. tuberculosis, Alamar Blue; for MIC: Mycobacterium tuberculosis, read-out: MABA (TB growth inhibition, colourimetric assay). In general terms: The colour change of resazurin is a common sign of viable cells or microbes.
The subject of experiment [2] is non replicating phase of M. tuberculosis (H37Rv with a plasmid with an acetimidase promoter driving a luciferase gene). The experiment is described as follows: microbe, parasite or virus in culture. The note with it: non replicating M. tuberculosis H37Rv luciferase strain; for MIC: Mycobacterium tuberculosis, read-out: LORA (TB growth inhibition, MIC). The format is cell-based.

Experimental findings from patent US20100317607A1, “USE OF COMPOUNDS FOR PREPARING ANTI-TUBERCULOSIS AGENTS” (INFECTIOUS DISEASE RESEARCH INSTITUTE, priority 2007, published 2010) are described below.

Structures are written as SMILES. In brackets after ≈: the same amount, converted by molar mass. Structures can show the parent of a compound that is named as a salt. Where only a bound is given, the exact number is not on record here.

Regarding `Cn1ncc2c(NCc3ccccc3)nc(N3CCCC3)nc21` [Compound 20, N-Benzyl-1-methyl-6-(pyrrolidin-1-yl)-1H-pyrazolo[3,4-d]pyrimidin-4-amine], the MIC in experiment [1] fell in the range of 50 to 128 µM (≈ 15.4 to 39.5 µg/mL). Also, the “LORA (TB growth inhibition, MIC)” value in experiment [2] is “−”.
For the compound `CC(Nc1nc(N2CCN(C(=O)C3CCCC3)CC2)nc2ccccc12)c1ccccc1` (stereo not shown) [Compound 21, Cyclopentyl(4-(4-(1-phenylethylamino)quinazolin-2-yl)piperazin-1-yl)methanone], the MIC in experiment [1] and in experiment [2] was 10 to 50 µM (≈ 4.3 to 21.5 µg/mL) throughout.
Regarding `c1ccc(CNc2nc(N3CCCC3)nc3ccccc23)cc1` [Compound 22, N-Benzyl-2-(pyrrolidin-1-yl)quinazolin-4-amine], the MIC in experiment [1] was under 10 µM; in experiment [2] it was 10 to 50 µM (≈ 3.04 to 15.2 µg/mL).
Take `c1ccc(CNc2nc(N3CCCCC3)c3ccccc3n2)cc1` [Compound 24, N-Benzyl-4-(piperidin-1-yl)quinazolin-2-amine]: the MIC in experiment [1] and in experiment [2] was 10 to 50 µM (≈ 3.18 to 15.9 µg/mL) throughout.
On to `c1ccc(CNc2nc(N3CCc4ccccc4C3)nc3ccccc23)cc1` [Compound 30, N-Benzyl-2-(3,4-dihydroisoquinolin-2(1H)-yl)quinazolin-4-amine], for which the MIC in experiment [1] and in experiment [2] was under 10 µM each time.
For the compound `c1ccc(CCNc2nc(N3CCCCC3)nc3ccccc23)cc1` [Compound 33, N-Phenethyl-2-(piperidin-1-yl)quinazolin-4-amine], the MIC was under 10 µM in experiment [1] and 10 to 50 µM (≈ 3.32 to 16.6 µg/mL) in experiment [2].
As to `Clc1ccc(CNc2nc(N3CCCCC3)nc3ccccc23)cc1` [Compound 34, N-(4-Chlorobenzyl)-2-(piperidin-1-yl)quinazolin-4-amine], the results for the MIC in experiment [1] and in experiment [2] were under 10 µM and 10 to 50 µM (≈ 3.53 to 17.6 µg/mL), respectively.
Regarding `CN(Cc1ccccc1)c1nc(N2CCCCC2)nc2ccccc12` [Compound 35, N-Benzyl-N-methyl-2-(piperidin-1-yl)quinazolin-4-amine], the MIC in experiment [1] and in experiment [2] was under 10 µM each time.
Regarding `c1ccc2c(c1)CCN(c1nc(N3CCCCC3)nc3ccccc13)C2` [Compound 36, 4-(3,4-Dihydroisoquinolin-2(1H)-yl)-2-(piperidin-1-yl)quinazoline], the MIC in experiment [1] is under 10 µM; in experiment [2], 10 to 50 µM (≈ 3.44 to 17.2 µg/mL).
For `c1ccc2c(CNc3nc(N4CCCCC4)nc4ccccc34)cccc2c1` [Compound 37, N-(Naphthalen-1-ylmethyl)-2-(piperidin-1-yl)quinazolin-4-amine] the same measures were under 10 µM and under 10 µM.
`FC(F)(F)c1ccc(CNc2nc(N3CCCCC3)nc3ccccc23)cc1` [Compound 38, 2-(Piperidin-1-yl)-N-(4-(trifluoromethyl)benzyl)quinazolin-4-amine]: the MIC in experiment [1] and in experiment [2] was under 10 µM each time.
Consider `C[C@@H](Nc1nc(N2CCCCC2)nc2ccccc12)c1ccccc1` [Compound 39, (R)—N-(1-Phenylethyl)-2-(piperidin-1-yl)quinazolin-4-amine], for which the MIC in experiment [1] was under 10 µM; in experiment [2], 10 to 50 µM (≈ 3.32 to 16.6 µg/mL).
`Clc1ccccc1CNc1nc(N2CCCCC2)nc2ccccc12` [Compound 40, N-(2-Chlorobenzyl)-2-(piperidin-1-yl)quinazolin-4-amine]: the figures for the MIC in experiment [1] and in experiment [2] were under 10 µM and 10 to 50 µM (≈ 3.53 to 17.6 µg/mL), respectively.
In the case of `Clc1cccc(CNc2nc(N3CCCCC3)nc3ccccc23)c1` [Compound 41, N-(3-Chlorobenzyl)-2-(piperidin-1-yl)quinazolin-4-amine], the MIC in experiment [1] is under 10 µM; in experiment [2], 10 to 50 µM (≈ 3.53 to 17.6 µg/mL).
Take `FC(F)(F)c1ccccc1CNc1nc(N2CCCCC2)nc2ccccc12` [Compound 42, 2-(Piperidin-1-yl)-N-(2-(trifluoromethyl)benzyl)quinazolin-4-amine]: the MIC in experiment [1] is under 10 µM; in experiment [2], 10 to 50 µM (≈ 3.86 to 19.3 µg/mL).
For `Cc1ccc(CNc2nc(N3CCCCC3)nc3ccccc23)cc1` [Compound 43, N-(4-Methylbenzyl)-2-(piperidin-1-yl)quinazolin-4-amine] the same measures were under 10 µM and 10 to 50 µM (≈ 3.32 to 16.6 µg/mL).
In the case of `COc1ccc(CNc2nc(N3CCCCC3)nc3ccccc23)cc1` [Compound 44, N-(4-Methoxybenzyl)-2-(piperidin-1-yl)quinazolin-4-amine], the MIC in experiment [1] was under 10 µM; in experiment [2], 10 to 50 µM (≈ 3.48 to 17.4 µg/mL).
As for `c1ccc2c(NCC3CCCCC3)nc(N3CCCCC3)nc2c1` [Compound 45, N-(Cyclohexylmethyl)-2-(piperidin-1-yl)quinazolin-4-amine], the MIC was under 10 µM in experiment [1] and 10 to 50 µM (≈ 3.24 to 16.2 µg/mL) in experiment [2].
As to `c1csc(CNc2nc(N3CCCCC3)nc3ccccc23)c1` [Compound 48, 2-(Piperidin-1-yl)-N-(thiophen-2-ylmethyl)quinazolin-4-amine], the MIC was under 10 µM in experiment [1] and 10 to 50 µM (≈ 3.24 to 16.2 µg/mL) in experiment [2].
For the compound `FC(F)(F)c1cccc(CNc2nc(N3CCCCC3)nc3ccccc23)c1` [Compound 49, 2-(Piperidin-1-yl)-N-(3-(trifluoromethyl)benzyl)quinazolin-4-amine], the figures for the MIC in experiment [1] and in experiment [2] were under 10 µM and 10 to 50 µM (≈ 3.86 to 19.3 µg/mL), respectively.
For `CC(C)(Nc1nc(N2CCCCC2)nc2ccccc12)c1ccccc1` [Compound 53, N-(2-Phenylpropan-2-yl)-2-(piperidin-1-yl)quinazolin-4-amine], the MIC in experiment [1] was under 10 µM; in experiment [2], 10 to 50 µM (≈ 3.46 to 17.3 µg/mL).
For `c1ccc(CNc2cc(N3CCCCC3)nc3ccccc23)cc1` [Compound 54, N-Benzyl-2-(piperidin-1-yl)quinolin-4-amine] the same measures were under 10 µM and under 10 µM.
For the compound `c1ccc2c(NC34CC5CC(CC(C5)C3)C4)nc(N3CCCCC3)nc2c1` [Compound 59, N-(1′-Adamantyl)-2-(piperidin-1-yl)quinazolin-4-amine], in experiment [1], the “MABA (TB growth inhibition, colourimetric assay)” value was “+++ (10-50 μM=+++)”. The “LORA (TB growth inhibition, MIC)” value in experiment [2] is given as “++++ (key: TB growth<10 μM=++++; 10-50 μM=+++; 50-128 μM=++; >128 μM but inhibited=+; no inhibition=−)”.
As to `c1ccc2c(NC3C4CC5CC(C4)CC3C5)nc(N3CCCCC3)nc2c1` (stereo not shown) [Compound 60, N-(2′-Adamantyl)-2-(piperidin-1-yl)quinazolin-4-amine], the “MABA (TB growth inhibition, colourimetric assay)” value in experiment [1] is listed as “+++ (10-50 μM=+++)”. Moreover, in experiment [2], the “LORA (TB growth inhibition, MIC)” value is on record as “++++ (key: TB growth<10 μM=++++; 10-50 μM=+++; 50-128 μM=++; >128 μM but inhibited=+; no inhibition=−)”.
With `CN(C)c1ccc(CNc2nc(N3CCCCC3)nc3ccccc23)cc1` [Compound 62, N-(4-(Dimethylamino)benzyl)-2-(piperidin-1-yl)quinazolin-4-amine], the MIC in experiment [1] was under 10 µM; in experiment [2] it was 10 to 50 µM (≈ 3.61 to 18.1 µg/mL).
The like results for `Fc1ccc(CNc2nc(N3CCCCC3)nc3ccccc23)cc1` [Compound 63, N-(4-Fluorobenzyl)-2-(piperidin-1-yl)quinazolin-4-amine] were, in that order, under 10 µM and 10 to 50 µM (≈ 3.36 to 16.8 µg/mL).
With `Fc1cccc(CNc2nc(N3CCCCC3)nc3ccccc23)c1` [Compound 64, N-(3-Fluorobenzyl)-2-(piperidin-1-yl)quinazolin-4-amine], the MIC in experiment [1] is under 10 µM; in experiment [2], 10 to 50 µM (≈ 3.36 to 16.8 µg/mL).
In the case of `Fc1ccccc1CNc1nc(N2CCCCC2)nc2ccccc12` [Compound 65, N-(2-Fluorobenzyl)-2-(piperidin-1-yl)quinazolin-4-amine], the MIC in experiment [1] is under 10 µM; in experiment [2], 10 to 50 µM (≈ 3.36 to 16.8 µg/mL).
As to `c1ccc(CN(Cc2ccccc2)c2nc(N3CCCCC3)nc3ccccc23)cc1` [Compound 66, N,N-Dibenzyl-2-(piperidin-1-yl)quinazolin-4-amine], the MIC in experiment [1] was under 10 µM; in experiment [2], 10 to 50 µM (≈ 4.09 to 20.4 µg/mL).
Turning to `Clc1ccc(CNc2nc(N3CCCCC3)nc3ccccc23)cc1Cl` [Compound 68, N-(3,4-Dichlorobenzyl)-2-(piperidin-1-yl)quinazolin-4-amine], the MIC in experiment [1] and in experiment [2] was under 10 µM in each case.
Take `Clc1ccc(CNc2nc(N3CCCCC3)nc3ccccc23)c(Cl)c1` [Compound 69, N-(2,4-Dichlorobenzyl)-2-(piperidin-1-yl)quinazolin-4-amine]: the MIC was under 10 µM in experiment [1] and 10 to 50 µM (≈ 3.87 to 19.4 µg/mL) in experiment [2].
For `Cc1ccc(CNc2nc(NCc3ccc(Cl)cc3)c3ccccc3n2)cc1` [Compound 76, N^4-(4-Chlorobenzyl)-N^2-(4-methylbenzyl)quinazoline-2,4-diamine] the same measures were under 10 µM and 10 to 50 µM (≈ 3.89 to 19.4 µg/mL).
Regarding `FC(F)(F)c1ccc(CNc2nc(N3CCCC3)nc3ccccc23)cc1` [Compound 78, 2-(Pyrrolidin-1-yl)-N-(4-(trifluoromethyl)benzyl)quinazolin-4-amine], the MIC in experiment [1] was under 10 µM; in experiment [2] it was 10 to 50 µM (≈ 3.72 to 18.6 µg/mL).
Consider `Cc1ccc(CNc2nc(NCc3ccc(C(F)(F)F)cc3)c3ccccc3n2)cc1` [Compound 79, N^4-(4-Trifluoromethylbenzyl)-N^2-(4-methylbenzyl)quinazoline-2,4-diamine], for which the MIC in experiment [1] is under 10 µM; in experiment [2] it was 10 to 50 µM (≈ 4.22 to 21.1 µg/mL).
The like results for `Cc1cccc(CNc2nc(N3CCCCC3)nc3ccccc23)c1` [Compound 80, N-(3-Methylbenzyl)-2-(piperidin-1-yl)quinazolin-4-amine hydrochloride] were, in that order, under 10 µM and 10 to 50 µM.
Consider `Clc1ccc(CCNc2nc(N3CCCCC3)nc3ccccc23)cc1` [Compound 83, N-(4-Chlorophenethyl)-2-(piperidin-1-yl)quinazolin-4-amine hydrochloride], for which the MIC in experiment [1] and in experiment [2] was under 10 µM in each case.
With `COc1ccc(CCNc2nc(N3CCCCC3)nc3ccccc23)cc1` [Compound 84, N-(4-Methoxyphenethyl)-2-(piperidin-1-yl)quinazolin-4-amine hydrochloride], the results for the MIC in experiment [1] and in experiment [2] were under 10 µM and 10 to 50 µM, respectively.
On to `N#Cc1ccc(CNc2nc(N3CCCCC3)nc3ccccc23)cc1` [Compound 92, 4-((2-(Piperidin-1-yl)quinazolin-4-ylamino)methyl)benzonitrile], for which the MIC in experiment [1] was under 10 µM; in experiment [2] it was 50 to 128 µM (≈ 17.2 to 44 µg/mL).
